Blank lines part the entries; values can stand above or below the molecule they belong to.
What was measured:
[1] = test system: NIE-115 mouse neuroblastoma; experiment: Time-dependence (kinetics) of SHG and 2PF signal change after voltage-clamp step; format: cell-based; details: time resolution 5 ms
From the text: For full details of our non-linear imaging microscope, we refer the reader to previously published descriptions. A. C. Millard, P. J. Campagnola, W. Mohler, A. Lewis, and L. M. Loew, “Second Harmonic Imaging Microscopy,” Meth. Enzymol. 361, 47-69 (2003); Millard, A. C., L. Jin, and L. M. Loew, “Second Harmonic Generation Imaging Microscopy with a High Power Ultrafast Fiber Laser,”Commercial and Biomedical Applications of Ultrafast Lasers. 5714-5716, 92-98 (2005); A. C. Millard, L. Jin, M.-D. Wei, J. P. Wuskell, A. Lewis, and L. M. Loew, “Sensitivity of Second Harmonic Generation from Styryl Dyes to Transmembrane Potential,” Biophys. J. 86, 1169-1176 (2004). Our current microscope combines a Fluoview (Olympus) scan-head and an Axiovert (Zeiss) inverted microscope constructed for multiple imaging methodologies including wide-field, one-photon excitation fluorescence imaging, as well as SHG and 2PF imaging. Our laser sources include a Mira (Coherent) Ti:sapphire laser and a Femtopower (Fianium) fiber laser operating at 1064 nm. Millard, A. C., L. Jin, and L. M. Loew, “Second Harmonic Generation Imaging Microscopy with a High Power Ultrafast Fiber Laser,”Commercial and Biomedical Applications of Ultrafast Lasers. 5714-5716, 92-98 (2005). For excitation, we routinely use an IR-Achroplan (Zeiss) 40×, 0.8 NA water-immersion objective though for shorter wavelengths we also use an A-Plan (Zeiss) 40×, 0.65 NA air objective. Fluorescence is imaged (for linear imaging) or collected (for non-linear imaging) back through the excitation objective, while SHG is collected in the forward, transmitted light direction by a condenser, either 0.8 NA or 0.55 NA (Zeiss). For optimal collection, the numerical aperture of the condenser should be at least 1/√2 of the numerical aperture of the excitation objective (L. Moreaux, O. Sandre, S. Charpak, M. Blanchard-Desce, and J. Mertz, “Coherent Scattering in Multi-Harmonic Light Microscopy,” Biophys. J. 80, 1568-1574 (2001); L. Moreaux, O. Sandre, and J. Mertz. “Membrane Imaging by Second Harmonic Generation Microscopy,” J. Opt. Soc. Am. B. 17, 1685-1694 (2000)), though in practice a condenser of slightly lower numerical aperture will often suffice. Since the wavelength of second harmonic light is precisely half that of the excitation light, the choice of filter for SHG imaging is greatly simplified and the primary concern is the blocking of the excitation light that is also transmitted through the sample as well as fluorescence that is emitted forwards.
NIE-115 mouse neuroblastoma were cultured in DMEM with 10% fetal bovine serum and 1% antibiotic-antimycotic (Invitrogen, Carlsbad, Calif.) in a 60 mm plastic dish (353002, Becton Dickinson, Franklin Lakes, N.J.). The culture was maintained at 37° C. with 5% CO2 for a period of 48 hours prior to experimentation.
For experimentation the growth medium was replaced with 3 mL of Earle's Balanced Salt Solution (EBSS, Sigma, St. Louis, Mo.) with 20 mM HEPES (Merck Biosciences AG, Laufelfingen, Switzerland). The internal buffer, injected into the patch pipette, was a potassium aspartate (140 mM, Sigma, St. Louis, Mo.), sodium chloride (5 mM, Sigma, St. Louis, Mo.) and HEPES (10 mM) solution at a pH of 7.35. The pH was adjusted with potassium hydroxide and hydrochloric acid.
For characterizing the voltage-sensitivity of SHG and 2PF, we used a slow (˜0.1 Hz) switching protocol as previously described (A. C. Millard, P. J. Campagnola, W. Mohler, A. Lewis, and L. M. Loew, “Second Harmonic Imaging Microscopy,” Meth. Enzymol. 361, 47-69 (2003); Millard, A. C., L. Jin, and L. M. Loew, “Second Harmonic Generation Imaging Microscopy with a High Power Ultrafast Fiber Laser,” Commercial and Biomedical Applications of Ultrafast Lasers. 5714-5716, 92-98 (2005); A. C. Millard, L. Jin, M.-D. Wei, J. P. Wuskell, A. Lewis, and L. M. Loew, “Sensitivity of Second Harmonic Generation from Styryl Dyes to Transmembrane Potential,” Biophys. J. 86, 1169-1176 (2004)) with a 50 mV step. […]

[2] = One-photon fluorescence relative signal change per 100 mV; details: excitation / long-pass emission (nm) given
From the text: The left-most data columns of Table 1 are the absorption and emission maxima for one photon fluorescence in soybean multi-lamellar lipid vesicles used to mimic the membrane environment. The column indicating relative signal change for one-photon fluorescence also lists the excitation light source used and the lower bounds of the long-pass emission detected.

[3] = One-photon absorption and emission spectra in multilamellar lipid vesicles, water and ethanol; format: physicochemical
From the text: […] The column indicating relative signal change for one-photon fluorescence also lists the excitation light source used and the lower bounds of the long-pass emission detected.
Absorption and emission spectra were obtained for a series of dyes with different acceptors: pyridinium (PY-1261), quinolinium (PY-212), and acridinium (PY-2240).

[4] = test system: NIE-115 mouse neuroblastoma; experiment: SHG and 2PF voltage sensitivity, 50 mV step, slow switching protocol on patch-clamped neuroblastoma cell; format: cell-based; details: comparator named in the sentence (PY-1266; PY-1268)
From the text: For full details of our non-linear imaging microscope, we refer the reader to previously published descriptions. A. C. Millard, P. J. Campagnola, W. Mohler, A. Lewis, and L. M. Loew, “Second Harmonic Imaging Microscopy,” Meth. Enzymol. 361, 47-69 (2003); Millard, A. C., L. Jin, and L. M. Loew, “Second Harmonic Generation Imaging Microscopy with a High Power Ultrafast Fiber Laser,”Commercial and Biomedical Applications of Ultrafast Lasers. 5714-5716, 92-98 (2005); A. C. Millard, L. Jin, M.-D. Wei, J. P. Wuskell, A. Lewis, and L. M. Loew, “Sensitivity of Second Harmonic Generation from Styryl Dyes to Transmembrane Potential,” Biophys. J. 86, 1169-1176 (2004). Our current microscope combines a Fluoview (Olympus) scan-head and an Axiovert (Zeiss) inverted microscope constructed for multiple imaging methodologies including wide-field, one-photon excitation fluorescence imaging, as well as SHG and 2PF imaging. Our laser sources include a Mira (Coherent) Ti:sapphire laser and a Femtopower (Fianium) fiber laser operating at 1064 nm. […] Fluorescence is imaged (for linear imaging) or collected (for non-linear imaging) back through the excitation objective, while SHG is collected in the forward, transmitted light direction by a condenser, either 0.8 NA or 0.55 NA (Zeiss). […]

[5] = test system: layer V pyramidal neurons; experiment: Voltage-sensitive dye imaging of action potentials in intracellularly stained pyramidal neurons in brain slices; format: cell-based, Sprague Dawley rats
From the text: Sprague Dawley rats (P21-42) were anesthetized with isoflurane, decapitated, and the brains were removed with the head immersed in ice-cold, artificial cerebrospinal fluid (ACSF), according to an animal protocol approved by the Center for Laboratory Animal Care, University of Connecticut. Brain slices (300 μm) were cut from frontal lobes in the coronal plane. ACSF contained (in mM) 125 NaCl, 26 NaHCO3, 10 glucose, 2.3 KCl, 1.26 KH2PO4, 2 CaCl2 and 1 MgSO4, pH 7.4. Whole-cell recordings were made from visually identified layer V pyramidal neurons on the medial part of the slice. Intracellular solution contained (in mM) 135 K-gluconate, 2 MgCl2, 3 Na2-ATP, 10 Na2-phosphocreatine, 0.3 Na2-GTP and 10 Hepes (pH 7.3, adjusted with KOH). Electrical signals were amplified with Multiclamp 700A and digitized with two input boards: (1) Digidata Series 1322A (Axon Instruments) at 5 kHz, and (2) Neuroplex (RedShirtImaging) at 2.7 kHz sampling rate. Only cells with a membrane potential more hyperpolarized than −50 mV, and action potential amplitudes exceeding 80 mV (measured from the base line) were included in this study. All experiments were performed on layer 5 cortical pyramidal cells at 34° C.
Blue dyes were stored in ethanol stock solution at −20° C. On the day of the recording blue dyes were dissolved in standard K-gluconate based intracellular solution. A loading pipette was filled with two varieties of the same intracellular solution; one with and one without dye. Dye-free solution was occupying the very tip of the pipette, while the back of the pipette lumen was microloaded with dye-rich solution. The purpose of dye-free solution in the tip of the patch pipette was to prevent dye-leak during the maneuver through brain slice tissue. VSD styryl dyes are lipophilic and bind indiscriminately and irreversibly to all membranes around the neuron of interest. Even a small amount of dye that leaks out of the pipette during the formation of the gigaohm seal, can generate strong fluorescent background. Fluorescent light emanating from surrounding tissue has a devastating effect on dendritic optical signals. Elimination of the background fluorescence is critical for dendritic voltage imaging. How much dye-free solution one should put in the tip depends on time period between the submersion of the patch pipette into the recording chamber and formation of the gigaohm seal. The faster one can perform this maneuver the less dye-free solution she needs to achieve optimal staining.
Blue VSD were injected at room temperature for 25-60 minutes. The filling pipette was carefully pulled out (outside-out patch) and brain slices were left to incubate for 20-120 minutes at room temperature. Just before optical recordings the cells were re-patched with dye-free pipette at the physiological temperature (34° C.).
Voltage-sensitive dye imaging was performed on a Zeiss Axioskope 2FS microscope equipped with NeuroCCD camera (RedShirtImaging). We used Zeiss 40× objective IR-Achroplan 0.80 W. The size of the square visual field captured by NeuroCCD camera was 384×384 um. In the place of the arc lamp (normally used for epi-illumination), we inserted a 200 μm fiber optic guide with a collimator. Laser beam was focused on the other side of the fiber optic guide using a microscope objective-like lens. This arrangement produced a motionless spot of laser light (˜25 μm in diameter) at the object plane. An illuminated section of the brain slice, projected onto the NeuroCCD camera, covered approximately 25 pixels when used with 40× objective lens. At this magnification, one pixel sampled a 4.8×4.8 square in the object plane. A region of interest (ROI) was brought into the laser spot using X-Y microscope platform. The laser beam was interrupted by an electro-programmable shutter (Uniblitz®). Attention was made to limit the exposure time during the recording and positioning of the neuron.

[6] = test system: layer V pyramidal neurons; experiment: Toxicity / photodynamic damage: AP half-width during optical recording; details: Sprague-Dawley, rat
From the text: S. Antic, G. Major, D. Zecevic, “Fast optical recordings of membrane potential changes from dendrites of pyramidal neurons”, Journal of Neurophysiology, 82, 1615-1621 (1999). Accumulation of reactive oxygen species (free radicals), which interact with and damage neuronal plasmalemma, is the most likely mechanism. J. B. Feix, B. Kalyanaraman, “Production of singlet oxygen-derived hydroxyl radical adducts during merocyanine-540-mediated photosensitization: analysis by ESR-spin trapping and HPLC with electrochemical detection”, Archives of Biochemistry & Biophysics, volume 291, pages 43-51 (1991). High intensity illumination during optical recording sessions excites large number of membrane bound dye molecules. Since styryl dyes have tendency to penetrate deep into the lipid bilayers (E. Fluhler, V. G. Burnham, L. M. Loew, “Spectra, membrane binding, and potentiometric responses of new charge shift probes”, Biochemistry, 24, 5749-5755 (1985)), free radicals are produced literally inside the neuronal membrane. […] S. D. Antic, “Action potentials in basal and oblique dendrites of rat neocortical pyramidal neurons”, Journal of Physiology 550, 35-50 (2003). […] Since dye loading was always done at room temperature (21° C.) and re-patching at 34° C., we could not compare AP shape and size before and after dye loading. Therefore, in order to check the extent of dye toxicity we designed a group of experiments in which neurons were injected and incubated at 34° C. During the dye injection (loading phase), in regular time intervals (3-5 min) direct current pulses was used to slowly charge the membrane and trigger an AP (FIG. 14A). Identical current pulse was then applied at the end of dye loading phase, just before the electrode pull-out (FIG. 14B) and after the 50-90 min incubation period (FIG. 14C, re-patch). […] To avoid AP jitter in optical recordings we used shorter and stronger current pulses (FIG. 14D, E, F, insets). However, from time to time we returned to AP-testing current injection protocol (FIG. 14D, E), while keeping the count on the number of cumulative high-intensity light exposures (# sweeps). […] Additional experimental details can be found in Ping Yan, Aifang Xie, Meide Wei, and Leslie M. Loew, “Amino(oligo)thiophene-Based Environmentally Sensitive Biomembrane Chromophores”, Journal of Organic Chemistry, published on web Jul. 30, 2008.

membrane potential = details: literature (Millard 2005); cited from earlier work
[7] = one photon, soybean multi-lamellar lipid vesicles

1PF Abs. Max [3, 7]: 530 nm | 1PF Em. Max [3, 7]: 676 nm
Compound: CC[N+](CC)(CC)CCC[n+]1ccc(/C=C/c2ccc(-c3ccc(N(C)C)s3)s2)cc1 [PY-1282]
SHG Kinetics (exponential time constant) [1]: 16 ± 1 ms | 1PF Change (ΔF/F-100 mv) [2]: 8.0E−002; 640/>715 ΔF/F-100 mv | SHG signal sensitivity relative to another dye [4]: three-fold increase

Absorbance ethanol ([3]; ethanol): 584 nm | Emission ethanol ([3]; ethanol): 812 nm | Absorbance MLV ([3]; multilamellar lipid vesicles): 526 nm | Emission MLV ([3]; multilamellar lipid vesicles): 702 nm | Absorbance water ([3]; water): 490 nm
Compound: CCN(CC)c1ccc2cc(/C=C/C=C/c3cc[n+](CCC[N+](C)(C)C)c4ccccc34)ccc2c1.[Br-].[Br-] [JPW-4090, Di-2-ANBDQPQ]
polarity of optical signal at 532 nm excitation [5]: positive signals | polarity of optical signal at 658 nm excitation [5]: positive signals | optical signal amplitude of blue dye relative to red dye JPW-3028 ([5]; FIG. 11): approximately 3 times | AP-associated optical signal, single example (base line-to-peak) ([5]; FIG. 11, basal dendrite): 17 % ΔF/F | dF/F at 633 nm ([5]; backpropagating AP, basal dendrites 80-150 μm from soma, laser spot 633 nm, %): 12.70 ± 3.59% | dF/F at 658 nm ([5]; backpropagating AP, basal dendrites 80-150 μm from soma, laser spot 658 nm, %): 11.03 ± 2.24% | voltage sensitivity compared with red dye ([5]; basal dendrites 80-150 μm from soma): better sensitivity than red dye JPW-3028 | S/N ratio at 633 nm ([5]; laser spot 633 nm): 5.48 ± 2.01 | S/N ratio at 658 nm ([5]; laser spot 658 nm): 6.93±1.88 | slope of linear fit, AP half-width versus cumulative sweeps [6]: 0.0003 | sweeps recorded per session on average [6]: 114±67 sweeps | time since beginning of dye injection without AP broadening [6]: ≥ 192 min

Compound: CCCCN(CCCC)c1ccc2cc(/C=C/c3cc[n+](CCCS(=O)(=O)[O-])cc3)ccc2c1 [di-4-ANEPPS]
SHG Kinetics (exponential time constant) (membrane potential): 70.6 ms
